Key:
[1] = test system: Akt in 3T3L1-GLUT4myc adipocytes; assay: Akt activation, Western blotting of phospho-Akt (Thr308, Ser473); type: cell-based; conditions: diDCP-LA-PE 1 μM, FIG. 4
Method: 3T3L1-GLUT4myc fibroblast strain expressing GLUT4myc was used. The cells are constructed by inserting human c-MYC epitope (14 amino acids) into the first ectodomain. The cells were cultured in Dulbecco's Modified Eagles Medium (DMEM) added with 10% (v/v) bovine serum, penicillin (final concentration, 100 U/ml) and streptomycin (final concentration, 0.1 mg/ml) in a humid environment under 5% CO2 and 95% air at 37° C. When the cells reached confluence (day 0), the medium was exchanged with DMEM added with 10% (v/v) fetal bovine serum (FBS), 1 μM dexamethasone, 0.5 mM 3-isobutyl-methyl-xanthine and 0.1 mg/ml insulin to allow for differentiation from fibroblast into adipocyte. The medium was exchanged with DMEM added with 10% (v/v) FBS on day 3, day 7 and day 11. On day 14, the cells were used for the experiment. […]
For Western blotting, the protein was separated by SDS-polyacrylamide gel electrophoresis (SDS-PAGE), and transferred onto polyvinylidene difluoride membranes. […] The immunoreactivity was detected using ECL kit (GE Healthcare, Piscataway, N.J., USA), and visualized using a chemical luminescence detection system (chemiluminescence detection system; GE Healthcare). The protein concentration of each sample was measured using BCA protein assay kit (Thermo Fisher Scientific, Waltham, Mass., USA).

[2] = test system: C57BL/KsJ-lepr db/lepr db mouse; assay: Glucose tolerance test in type 2 diabetes model mouse; type: in vivo; conditions: oral, 0.01-3 mg/kg, 30 min before glucose 2 g/kg, FIG. 10
Method: C57BL/KsJ-lepr^db/lepr^db mouse (female, 8-week-old) (CLEA Japan; Tokyo, Japan) was used. The glucose tolerance test was performed using the mouse starved for 12 hr. Glucose (2 g/ml/kg body weight) was administered by gavage, and the time point thereof was taken as 0 h. diDCP-LA-PE (0.01, 0.1, 1, 3 mg/kg), insulin (0.75 U/kg) or brine was orally administered 30 min before administration of glucose. The blood (10 μl) was collected from the tail vein at the time points of 0, 30, 60, and 90 min, and each plasma sample which was labeled with p-aminobenzylethylester and prepared from the obtained blood was loaded on high performance liquid chromatography (HPLC) system (LC-10ATvp; Shimadzu Co., Kyoto, Japan). The glucose concentration was calculated from a peak area/concentration analytical curve prepared using the standard glucose solution.

Structure (SMILES): CCCCCC1CC1CC1CC1CCCCCCCC(=O)OC[C@H](COP(=O)(O)OCCN)OC(=O)CCCCCCCC1CC1CC1CC1CCCCC (some centres unmarked) [diDCP-LA-PE, 1,2-o-bis-[8-{2-(2-pentyl-cyclopropylmethyl)-cyclopropyl}-octanoyl]-sn-glycero-3-phosphatidylethanolamine]
- Akt activation (phosphorylation of Thr308 and Ser473 relative to total Akt) [1]: has an action to activate Akt
- Decrease of blood glucose level [2]: decrease the blood glucose level in a dose-dependent manner
